Data: article PMC7615677 (Science translational medicine, 2023)
Read-outs that look alike come from different tables or passages of the source.

Columns and labels:
[1] = system: L5178Y mouse lymphoma cells; assay: In vitro mutation assay at the TK locus; format: cell-based; conditions: absence or presence of rat liver S9
Protocol: Two independent mutation tests were carried out: one in which cells were treated for 3 h in the presence of rat liver S9 mix and with […] as a positive control, and a second treated for 24 h in the absence of S9 mix and with […] as a positive control. In both cases, DMSO was used as the negative control. In accordance with current guidelines ICH S2(R1), 2011 ([41]) mutant frequency was counted at concentrations where solubility was not a limiting factor and cytotoxicity was not observed.

In vivo pharmacokinetics = assay: In vivo pharmacokinetics; parameters: species or system female BALB/c mice; conditions: for AUC(0-t) / AUC / Cmax / Cmax at 5 days: mice, 5 days; for AUC(0-t): read-out: AUC0-24 (first dose); for AUC: read-out: AUC96-120 (last dose); for Cmax: read-out: Cmax (first dose); for Cmax at 5 days: read-out: Cmax (last dose)
[2] = In vitro cytotoxicity assay; format: cell-based; conditions: human, HepG2 human hepatocellular carcinoma cells
[3] = system: L. donovani promastigote cultures; assay: microbe, parasite or virus in culture; format: cell-based; conditions: Leishmania donovani
Protocol: The clonal L. donovani cell line LdBOB (derived from MHOM/SD/62/1S-CL2D) was grown as promastigotes at 28°C and as axenic amastigotes at 37°C, as described previously ([25]).
To examine the effects of test compounds on growth in 96-well plates, promastigote or axenic amastigote cultures seeded at 5 × 10^4 parasites mL^–1 were incubated in the presence of 2-fold serial dilutions of test compounds for 72 h. Following incubation, 50 μM resazurin was added to each well and fluorescence (excitation of 528 nm and emission of 590 nm) measured after a further 3 h incubation.
Starting at sublethal concentrations, drug concentrations in 5 independent cultures were increased in a stepwise manner, usually by 2-fold. […] Five clones (Res 1–5) were selected for further biological study.

THP-1 = assay: MitoXpress oxygen consumption assay; format: cell-based
[4] = system: BALB/c 3T3 mouse fibroblasts; assay: In vitro 3T3 Neutral Red Uptake (NRU) phototoxicity assay; format: cell-based; conditions: 3T3 NRU
Protocol: Extinction coefficients were 16131 and 8507 L mol^-1 cm^-1, respectively. An in vitro 3T3 Neutral Red Uptake (NRU) phototoxicity assay was then conducted using a 96-well cytotoxicity-based assay that utilizes normal BALB/c 3T3 mouse fibroblasts to measure the concentration-dependent reduction in neutral red uptake by the cells after exposure to test material either in the presence or absence of UVA light. The assay was performed according to OECD (Test No. 432) test guidance ([42]). Duplicate 96-well monolayers of 3T3 fibroblasts were exposed to serial dilutions of test material. One of the plates was exposed to 5 J/cm2 UVA while the other plate was kept in the dark. To assess viability, the NRU by cells exposed to the test chemical in the presence of UVA exposure was compared to the NRU by cells exposed to the test chemical in the absence of UVA exposure. The Photo-Irritation-Factor (PIF) and Mean Photo Effect (MPE) were calculated.

[5] = In vitro metabolism, liver microsomes; format: in vitro ADME, human
Protocol: Compounds were spiked into microsomal matrix prepared in 0.1 M pH 7.4 phosphate buffer containing magnesium chloride (final concentration of 3.3 mM), equilibrated for 5-10 min at 37°C. The reaction was initiated with the addition of freshly prepared solution of NADPH (final 1.3 mM). Control samples without co-factor were included for comparison. Aliquots of the reaction mixtures were taken periodically over 60 min and quenched with acetonitrile containing internal standards (metolazone and diazepam). Quenched samples were maintained on ice for approximately 20-30 min, centrifuged (for 5 min) and the supernatant was analyzed by LC-MS.
(§1) In vitro intrinsic clearance (CLint, μL/min/mg or μL/min/10^6 cells) values were calculated from the apparent first order degradation rate constant divided by the microsome concentration or the hepatocyte cell number (10^6 viable cells/mL). In vitro CLint values were then divided by the fraction unbound in the in vitro test system (to give CLint,u) and scaled to in vivo values (mL/min/kg) using published physiological scaling factors ([28]). Blood clearance in each species was then calculated using the well-stirred model of hepatic extraction (equation 2) where Q is the hepatic blood flow and fu,blood is calculated from fu,plasma/B:P: [2] PredictedCLblood=Q x fu,blood x CLint,u/Q+fu,blood x CLint,u
(§2) Blood clearance values were converted to plasma clearance by multiplying by the B:P.

[6] = Reaction phenotyping with chemical CYP inhibitors; format: in vitro ADME; conditions: human liver microsomes
Protocol: Other aspects of the incubation and analysis were as described above.

[7] = In vitro metabolism, cryopreserved hepatocytes; format: in vitro ADME, rat
Protocol: Cell viability was determined using trypan blue exclusion. The incubation was performed on a plate shaker (Heidolph Titrimax 100, 900 rpm) placed in a humidified incubator (37°C, 7.5% CO2) for 240 min. The reaction was initiated with the addition of compound with samples taken periodically and quenched with the addition of acetonitrile containing internal standards (metolazone and diazepam). Quenched samples were maintained on ice for approximately 20-30 min, centrifuged (for 5 min) and the supernatant analyzed by LC-MS.
as §1, §2

[8] = female, BALB/c, mouse, plasma, oral 3.6 mg/kg bid
[9] = female, BALB/c, mouse, plasma, oral 7.1 mg/kg bid
[10] = female, BALB/c, mouse, plasma, oral 12.5 mg/kg bid

## Cc1[nH]c2nc(N)nc(C)c2c1-c1ccc(C#N)c2c1OCO2 [DNDI-6174]
[1]
  genotoxicity, in words: not genotoxic
In vivo pharmacokinetics; bid dosing in mice
  increase in Cmax over the 5-day dosing period: approximately 2 fold
In vivo pharmacokinetics; female, BALB/c, mouse, plasma, iv, 2 mg/kg, Mouse, read-out: Measured in vivo CLplasma
  clearance: 7.5 mL/min/kg
In vivo pharmacokinetics; [8]
  AUC(0-t): 10600 ng·h/mL
  AUC: 15700 ng·h/mL
  Cmax: 600 ng/mL
  Cmax at 5 days: 1350 ng/mL
In vivo pharmacokinetics; [9]
  AUC(0-t): 35500 ng·h/mL
  AUC: 37000 ng·h/mL
  Cmax: 1930 ng/mL
  Cmax at 5 days: 3040 ng/mL
In vivo pharmacokinetics; [10]
  AUC(0-t): 94500 ng·h/mL
  AUC: 93300 ng·h/mL
  Cmax: 3830 ng/mL
  Cmax at 5 days: 6810 ng/mL
In vivo pharmacokinetics; female, BALB/c, plasma, Mouse, intravenous 2.0 mg/kg, read-out: Plasma AUC0-inf
  AUC(0-inf): 4470 ng·h/mL
In vivo pharmacokinetics; female, BALB/c, plasma, Mouse, oral 25 mg/kg, read-out: Apparent t1/2 (converted)
  half-life: 3.7 h
In vivo pharmacokinetics; female, BALB/c, plasma, Mouse, oral 25 mg/kg, read-out: Plasma AUC0-∞
  AUC(0-inf): 75500 ng·h/mL
[2]
  CC50: > 64000 nM
[3]; DDD01716002 Res 1, read-out: EC50 (representative curve, Fig. 2A)
  EC50: 1276 ± 2 nM
[3]; WT, read-out: EC50 (representative curve, Fig. 2A)
  EC50: 22 ± 2 nM
[3]; Wild-type promastigotes, read-out: EC50 values
  EC50: 24 ± 1 nM
[3]; read-out: EC50 values, DDD01716002 Res 1 (S207P)
  EC50: 779 ± 98 nM
[3]; read-out: EC50 values, DDD01716002 Res 2 (G31A)
  EC50: 829 ± 63 nM
[3]; read-out: EC50 values, DDD01716002 Res 3 (F227I)
  EC50: 84 ± 3 nM
[3]; read-out: EC50 values, DNDI-6174 Res 1 (S35N/S206N)
  EC50: 431 ± 16 nM
[3]; read-out: EC50 values, DNDI-6174 Res 2 (D231E)
  EC50: 3950 ± 228 nM
[3]; read-out: EC50 values, DNDI-6174 Res 3 (S207P)
  EC50: 1500 ± 91 nM
[3]; read-out: EC50 values, DNDI-6174 Res 4 (G31A)
  EC50: 2700 ± 145 nM
[3]; read-out: EC50 values, DNDI-6174 Res 5 (S206N)
  EC50: 157 ± 5 nM
THP-1
  XC50: > 50000 nM
  pXC50: < 4.3
[4]
  risk of being phototoxic, in words: discarded
[5]; Human
  Microsome predicted in vivo CLplasma: 0.86 mL/min/kg
[5]; Human, 2 independent experiments, ± standard error of estimate
  In vitro Microsome CLint: 7.2 ± 1.2 µL/min/mg
[5]; human, liver microsomes, pH 7.4, Human, 2 independent experiments, ± standard error of estimate, read-out: In vitro Microsome CLint
  microsomal CLint at 0.5 µM: 6.4 ± 0.75 µL/min/mg
[6]
  CLint in absence or presence of CYP isoform inhibitors, in words: no significant difference in the CLint values in the absence or presence of inhibitors
[7]; Rat
  Hepatocyte predicted in vivo CLplasma: 2.7 mL/min/kg
[7]; rat, cryopreserved hepatocytes
  hepatocyte CLint at 0.5 µM: 5.3 ± 0.19 µL/min/1e6 cells
